Measured values reported in PMC12598851, “Exploiting Avidity Effects for the Discovery of Low Affinity Protein-Binding Fragments” (Journal of Medicinal Chemistry, 2025).

Experiments:
[1] = target: T1, glutathione S-transferase (GST) (Schistosoma japonicum, UniProt P08515); assay: Bead pull-down of compound 2 beads with GST as off-target control; type: binding; conditions: GST 1 μM, stained with labeled antibody
T1 construct: His6 (C); made in house; host or cells: E. coli BL21 (DE3) codon plus RP
T1 sequence (P08515 whole entry): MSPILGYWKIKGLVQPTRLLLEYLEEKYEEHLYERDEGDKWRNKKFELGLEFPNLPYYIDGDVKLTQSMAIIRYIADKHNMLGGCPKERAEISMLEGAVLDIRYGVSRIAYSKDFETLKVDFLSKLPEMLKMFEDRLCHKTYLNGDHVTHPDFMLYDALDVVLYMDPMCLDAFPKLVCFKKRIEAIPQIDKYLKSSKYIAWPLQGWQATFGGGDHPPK

SA-647 = target: T2, SA-647 (Streptomyces avidinii, UniProt P22629); assay: Pooled bead library screen against SA-647 by FACS with LC-MS hit identification; type: binding; conditions: about 50-plex pooled beads, SA-647 500 nM, IP+-modified derivatives
T2 construct: purchased ThermoFisher S3235
T2 sequence (P22629 37-163 limits assumed): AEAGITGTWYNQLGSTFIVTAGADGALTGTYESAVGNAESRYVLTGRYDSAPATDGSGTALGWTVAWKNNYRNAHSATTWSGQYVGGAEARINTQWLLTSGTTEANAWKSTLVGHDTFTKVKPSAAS
From the text: While the one compound per well screening format employed for the Figures and experiments works well, it will limit throughput for the analysis of much larger fragment libraries in the future. […] A photocleavable linker was placed between the fragment and the bead (Figure a). Beads displaying compounds 2, 3, and the oxazole analog of compound 2 were also constructed with the same architecture. Beads displaying all of these compounds were then mixed together in a single Mobicol tube (approximately 25,000 of each bead type).
The resin was incubated with SA-647 (500 nM, 300 μL) for 1 h at room temperature with gentle rotation.
Prior to releasing the compounds from the resin for analysis, we “clicked” a brominated imidazopyridinium unit (IP^+) to the alkyne unit in the linker of these beads via copper-catalyzed azide–alkyne cycloaddition (Figure a,c insert). This was done for three reasons. The first was to add a chromophore to molecules so that, after release from the beads, they could be detected sensitively using a UV detector on the LC trace. […]
After attachment of the IP^+ tag, the beads were washed with a 1:1 mixture of DMF and DCM and irradiated at 365 nm (4.5 × 10^3 μJ cm^–2) for 1 h in a 3:1 DCM/MeOH mixture to release the ligands from the beads. After evaporation of solvents, the eluate was redissolved in water and analyzed by LC-MS. […]

CC(=O)N(Cc1cccnc1)Cc1nc(C(=O)N(C)CC(=O)NCCOCCOCC(=O)NCC(N)=O)cs1 [Compound 2]
binding of GST to bead-displayed compound [1]: No detectable signal
recovery in sorted hit pool (LC-MS peak) (SA-647): major peak
